{"source": "PubChem BioAssay AID1259407", "about": "(Chemical Carcinogenesis Research Information System (CCRIS), 2018)", "tested_on": "CCRIS mutagenicity, Ames/micronucleus/aberration tests", "assay": "CCRIS mutagenicity studies", "note": "Calls of active or inactive are those of the source. No rule for the calls is given here."}
{"smiles": "CCCCNC(=O)n1c(NC(=O)OC)nc2ccccc21", "values": [{"measurement": "mutagenic call", "setting": "End Point: IN VIVO CHROMOSOMAL ABERRATIONS, Test System: BONE MARROW CELLS, Species: MOUSE, Strain/Sex: SWISS/MALE, Route: DIET (ORAL)", "value": "active; positive at all dose levels (structural and ploidy changes, robertsonian translo"}, {"measurement": "mutagenic call", "setting": "Test System: AMES SALMONELLA TYPHIMURIUM, Strain/Indicator: TA97, Metabolic Activation: HAMSTER, LIVER, S-9, AROCLOR 1254 (10%), Method: PREINCUBATION", "value": "inactive; negative"}, {"measurement": "mutagenic call", "setting": "Test System: AMES SALMONELLA TYPHIMURIUM, Strain/Indicator: TA97, Metabolic Activation: HAMSTER, LIVER, S-9, AROCLOR 1254 (30%), Method: PREINCUBATION", "value": "inactive; negative"}, {"measurement": "mutagenic call", "setting": "Test System: AMES SALMONELLA TYPHIMURIUM, Strain/Indicator: TA97, Metabolic Activation: NONE, Method: PREINCUBATION", "value": "inactive; negative"}, {"measurement": "mutagenic call", "setting": "Test System: AMES SALMONELLA TYPHIMURIUM, Strain/Indicator: TA97, Metabolic Activation: RAT, LIVER, S-9, AROCLOR 1254 (10%), Method: PREINCUBATION", "value": "inactive; negative"}, {"measurement": "mutagenic call", "setting": "Test System: AMES SALMONELLA TYPHIMURIUM, Strain/Indicator: TA97, Metabolic Activation: RAT, LIVER, S-9, AROCLOR 1254 (30%), Method: PREINCUBATION", "value": "inactive; negative"}, {"measurement": "mutagenic call", "setting": "Test System: AMES SALMONELLA TYPHIMURIUM, Strain/Indicator: TA97A, Metabolic Activation: NONE, Method: STANDARD PLATE", "value": "inactive; negative"}, {"measurement": "mutagenic call", "setting": "Test System: AMES SALMONELLA TYPHIMURIUM, Strain/Indicator: TA97A, Metabolic Activation: PLANT, HOMOGENATE, S-14, Method: STANDARD PLATE", "value": "inactive; negative"}, {"measurement": "mutagenic call", "setting": "Test System: AMES SALMONELLA TYPHIMURIUM, Strain/Indicator: TA97A, Metabolic Activation: S-9, Method: STANDARD PLATE", "value": "inactive; negative"}, {"measurement": "mutagenic call", "setting": "Test System: AMES SALMONELLA TYPHIMURIUM, Strain/Indicator: TA98, Metabolic Activation: HAMSTER, LIVER, S-9, 1254 (10%), Method: PREINCUBATION", "value": "inactive; negative"}, {"measurement": "mutagenic call", "setting": "Test System: AMES SALMONELLA TYPHIMURIUM, Strain/Indicator: TA98, Metabolic Activation: HAMSTER, LIVER, S-9, AROCLOR 1254 (30%), Method: PREINCUBATION", "value": "inactive; negative"}, {"measurement": "mutagenic call", "setting": "Test System: AMES SALMONELLA TYPHIMURIUM, Strain/Indicator: TA98, Metabolic Activation: NONE, Method: PREINCUBATION", "value": "inactive; negative"}, {"measurement": "mutagenic call", "setting": "Test System: AMES SALMONELLA TYPHIMURIUM, Strain/Indicator: TA98, Metabolic Activation: PLANT, HOMOGENATE, S-14, Method: STANDARD PLATE", "value": "inactive; negative"}, {"measurement": "mutagenic call", "setting": "Test System: AMES SALMONELLA TYPHIMURIUM, Strain/Indicator: TA98, Metabolic Activation: RAT, LIVER, S-9, AROCLOR 1254 (10%), Method: PREINCUBATION", "value": "inactive; negative"}, {"measurement": "mutagenic call", "setting": "Test System: AMES SALMONELLA TYPHIMURIUM, Strain/Indicator: TA98, Metabolic Activation: RAT, LIVER, S-9, AROCLOR 1254 (30%), Method: PREINCUBATION", "value": "inactive; negative"}, {"measurement": "mutagenic call", "setting": "Test System: AMES SALMONELLA TYPHIMURIUM, Strain/Indicator: TA98, Metabolic Activation: RAT, LIVER, S-9, AROCLOR 1254, Method: STANDARD PLATE", "value": "inactive; negative"}, {"measurement": "mutagenic call", "setting": "Test System: AMES SALMONELLA TYPHIMURIUM, Strain/Indicator: TA98, Metabolic Activation: RAT, LIVER, S-9, AROCLOR, Method: STANDARD PLATE", "value": "inactive; negative"}, {"measurement": "mutagenic call", "setting": "Test System: AMES SALMONELLA TYPHIMURIUM, Strain/Indicator: TA98, Metabolic Activation: S-9, Method: STANDARD PLATE", "value": "inactive; negative"}, {"measurement": "mutagenic call", "setting": "Test System: AMES SALMONELLA TYPHIMURIUM, Strain/Indicator: TA100, Metabolic Activation: HAMSTER, LIVER, S-9, AROCLOR 1254 (10%), Method: PREINCUBATION", "value": "inactive; negative"}, {"measurement": "mutagenic call", "setting": "Test System: AMES SALMONELLA TYPHIMURIUM, Strain/Indicator: TA100, Metabolic Activation: HAMSTER, LIVER, S-9, AROCLOR 1254 (30%), Method: PREINCUBATION", "value": "inactive; negative"}, {"measurement": "mutagenic call", "setting": "Test System: AMES SALMONELLA TYPHIMURIUM, Strain/Indicator: TA100, Metabolic Activation: NONE, Method: PREINCUBATION", "value": "inactive; negative"}, {"measurement": "mutagenic call", "setting": "Test System: AMES SALMONELLA TYPHIMURIUM, Strain/Indicator: TA100, Metabolic Activation: PLANT, HOMOGENATE, S-14, Method: STANDARD PLATE", "value": "inactive; negative"}, {"measurement": "mutagenic call", "setting": "Test System: AMES SALMONELLA TYPHIMURIUM, Strain/Indicator: TA100, Metabolic Activation: RAT, LIVER, S-9, AROCLOR 1254 (10%), Method: PREINCUBATION", "value": "inactive; negative"}, {"measurement": "mutagenic call", "setting": "Test System: AMES SALMONELLA TYPHIMURIUM, Strain/Indicator: TA100, Metabolic Activation: RAT, LIVER, S-9, AROCLOR 1254 (30%), Method: PREINCUBATION", "value": "inactive; negative"}, {"measurement": "mutagenic call", "setting": "Test System: AMES SALMONELLA TYPHIMURIUM, Strain/Indicator: TA100, Metabolic Activation: RAT, LIVER, S-9, AROCLOR 1254, Method: STANDARD PLATE", "value": "inactive; negative"}, {"measurement": "mutagenic call", "setting": "Test System: AMES SALMONELLA TYPHIMURIUM, Strain/Indicator: TA100, Metabolic Activation: RAT, LIVER, S-9, AROCLOR, Method: STANDARD PLATE", "value": "inactive; negative"}, {"measurement": "mutagenic call", "setting": "Test System: AMES SALMONELLA TYPHIMURIUM, Strain/Indicator: TA100, Metabolic Activation: S-9, Method: STANDARD PLATE", "value": "inactive; negative"}, {"measurement": "mutagenic call", "setting": "Test System: AMES SALMONELLA TYPHIMURIUM, Strain/Indicator: TA1535, Metabolic Activation: HAMSTER, LIVER, S-9, AROCLOR 1254 (10%), Method: PREINCUBATION", "value": "inactive; negative"}, {"measurement": "mutagenic call", "setting": "Test System: AMES SALMONELLA TYPHIMURIUM, Strain/Indicator: TA1535, Metabolic Activation: HAMSTER, LIVER, S-9, AROCLOR 1254 (30%), Method: PREINCUBATION", "value": "inactive; negative"}, {"measurement": "mutagenic call", "setting": "Test System: AMES SALMONELLA TYPHIMURIUM, Strain/Indicator: TA1535, Metabolic Activation: NONE, Method: PREINCUBATION", "value": "inactive; negative"}, {"measurement": "mutagenic call", "setting": "Test System: AMES SALMONELLA TYPHIMURIUM, Strain/Indicator: TA1535, Metabolic Activation: PLANT, HOMOGENATE, S-14, Method: STANDARD PLATE", "value": "inactive; negative"}, {"measurement": "mutagenic call", "setting": "Test System: AMES SALMONELLA TYPHIMURIUM, Strain/Indicator: TA1535, Metabolic Activation: RAT, LIVER, S-9, AROCLOR 1254 (10%), Method: PREINCUBATION", "value": "inactive; negative"}, {"measurement": "mutagenic call", "setting": "Test System: AMES SALMONELLA TYPHIMURIUM, Strain/Indicator: TA1535, Metabolic Activation: RAT, LIVER, S-9, AROCLOR 1254 (30%), Method: PREINCUBATION", "value": "inactive; negative"}, {"measurement": "mutagenic call", "setting": "Test System: AMES SALMONELLA TYPHIMURIUM, Strain/Indicator: TA1535, Metabolic Activation: RAT, LIVER, S-9, AROCLOR 1254, Method: STANDARD PLATE", "value": "inactive; negative"}, {"measurement": "mutagenic call", "setting": "Test System: AMES SALMONELLA TYPHIMURIUM, Strain/Indicator: TA1535, Metabolic Activation: RAT, LIVER, S-9, AROCLOR, Method: STANDARD PLATE", "value": "inactive; negative"}, {"measurement": "mutagenic call", "setting": "Test System: AMES SALMONELLA TYPHIMURIUM, Strain/Indicator: TA1535, Metabolic Activation: S-9, Method: STANDARD PLATE", "value": "inactive; negative"}, {"measurement": "mutagenic call", "setting": "Test System: AMES SALMONELLA TYPHIMURIUM, Strain/Indicator: TA1537, Metabolic Activation: HAMSTER, LIVER, S-9, AROCLOR 1254 (10%), Method: PREINCUBATION", "value": "inactive; negative"}, {"measurement": "mutagenic call", "setting": "Test System: AMES SALMONELLA TYPHIMURIUM, Strain/Indicator: TA1537, Metabolic Activation: HAMSTER, LIVER, S-9, AROCLOR 1254 (30%), Method: PREINCUBATION", "value": "inactive; negative"}, {"measurement": "mutagenic call", "setting": "Test System: AMES SALMONELLA TYPHIMURIUM, Strain/Indicator: TA1537, Metabolic Activation: NONE, Method: PREINCUBATION", "value": "inactive; negative"}, {"measurement": "mutagenic call", "setting": "Test System: AMES SALMONELLA TYPHIMURIUM, Strain/Indicator: TA1537, Metabolic Activation: NONE, Method: STANDARD PLATE", "value": "inactive; negative"}, {"measurement": "mutagenic call", "setting": "Test System: AMES SALMONELLA TYPHIMURIUM, Strain/Indicator: TA1537, Metabolic Activation: RAT, LIVER, S-9, AROCLOR 1254 (10%), Method: PREINCUBATION", "value": "inactive; negative"}, {"measurement": "mutagenic call", "setting": "Test System: AMES SALMONELLA TYPHIMURIUM, Strain/Indicator: TA1537, Metabolic Activation: RAT, LIVER, S-9, AROCLOR 1254 (30%), Method: PREINCUBATION", "value": "inactive; negative"}, {"measurement": "mutagenic call", "setting": "Test System: AMES SALMONELLA TYPHIMURIUM, Strain/Indicator: TA1537, Metabolic Activation: RAT, LIVER, S-9, AROCLOR 1254, Method: STANDARD PLATE", "value": "inactive; negative"}, {"measurement": "mutagenic call", "setting": "Test System: AMES SALMONELLA TYPHIMURIUM, Strain/Indicator: TA1537, Metabolic Activation: RAT, LIVER, S-9, AROCLOR, Method: STANDARD PLATE", "value": "inactive; negative"}, {"measurement": "mutagenic call", "setting": "Test System: E. COLI, Strain/Indicator: WP2 UVRA, Metabolic Activation: NONE, Method: FLUCTUATION", "value": "active; positive"}]}
{"smiles": "COC(=O)c1cc2c([nH]c3ccccc32)c(-c2ccc3c(n2)C(=O)C=CC3=O)n1", "values": [{"measurement": "mutagenic call", "setting": "Test System: AMES SALMONELLA TYPHIMURIUM, Strain/Indicator: TA100, Metabolic Activation: NONE, Method: STANDARD PLATE", "value": "active; positive"}, {"measurement": "mutagenic call", "setting": "Test System: AMES SALMONELLA TYPHIMURIUM, Strain/Indicator: TA100, Metabolic Activation: RAT, LIVER, S-9, PCB, Method: STANDARD PLATE", "value": "active; positive"}]}
{"smiles": "C1CCC2=NCCCN2CC1", "values": [{"measurement": "mutagenic call", "setting": "Test System: Mouse lymphoma, Strain/Indicator: L5178Y (tk+/tk-), Metabolic Activation: None, Method: Suspension/plate", "value": "inactive; negative"}, {"measurement": "mutagenic call", "setting": "Test System: Mouse lymphoma, Strain/Indicator: L5178Y (tk+/tk-), Metabolic Activation: Rat, Liver, S-9, Aroclor 1254, Method: Suspension/plate", "value": "inactive; negative"}]}
